Like-named read-outs stand apart in the source and are kept apart here.
Experiments:
hTS = target: T1, hTS (Homo sapiens, UniProt P04818); test: Inhibition of TS-catalyzed reaction (tritium release from [5-3H]dUMP); type: biochemical; details: for IC50: read-out: IC50 Assessment
T1 construct: made in house
Description: (§1) The recombinant human, rat, mouse, T. spiralis and C. elegans TS proteins were produced, purified and separated into phosphorylated and non-phosphorylated fraction, as previously described. TS activity was monitored, following tritium release from [5-^3H]dUMP, and its inhibition studied as earlier reported.

mTS = target: T2, mTS (Mus musculus, UniProt P07607); test: as above; type: biochemical; details: for remaining activity at 10 µM: compound 10 µM; for IC50: read-out: IC50 Assessment
T2 construct: made in house
Description: as §1

CeTS = target: T3, CeTS (Caenorhabditis elegans, UniProt Q9Y052); test: as above; type: biochemical, C. elegans; details: for remaining activity at 100 µM: compound 100 µM
T3 sequence (Q9Y052 1-315): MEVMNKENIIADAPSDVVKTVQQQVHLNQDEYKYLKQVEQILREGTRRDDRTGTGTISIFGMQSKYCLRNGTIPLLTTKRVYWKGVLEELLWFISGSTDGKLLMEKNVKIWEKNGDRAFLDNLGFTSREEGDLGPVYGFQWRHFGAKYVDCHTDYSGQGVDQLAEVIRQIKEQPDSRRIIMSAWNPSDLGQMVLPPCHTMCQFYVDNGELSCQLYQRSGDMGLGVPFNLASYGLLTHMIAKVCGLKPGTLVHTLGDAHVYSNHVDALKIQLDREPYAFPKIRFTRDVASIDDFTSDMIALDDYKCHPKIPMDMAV
Description: as §1

TsTS = TsTS (Trichinella spiralis, UniProt Q9NDD3); test: as above; type: biochemical, T. spiralis; details: 20 µM dUMP; for IC50: IC50 Assessment; for remaining activity at 100 µM: compound 100 µM; for remaining activity at 1000 µM: compound 1000 µM
Description: as §1

C. elegans [1] = test: Toxicity to C. elegans (population growth)
Method: C. elegans was maintained as previously described. The effect of the compounds studied on C. elegans population growth was determined as earlier presented.

[2] = test system: BJ normal human skin fibroblasts; test: Cytotoxicity, neutral red uptake (NR) assay; type: cell-based; details: Homo sapiens, Skin fibroblast
Method: (§2) Biological effect of alvaxanthone and rheediaxanthone B on normal (BJ) and cancer cells (U-118 MG and SCC-15) was estimated using two viability assays, the neutral red uptake (NR) and tetrazolium salts reduction (XTT) assays.
(§3) Human glioblastoma cells U-118 MG (ATCC® HTB-15), human squamous carcinoma cells SCC-15 (ATCC® CRL-1623), and normal human skin fibroblasts (ATCC® CRL-2522) were grown, their morphology checked, and number and viability estimated as earlier presented.
(§4) Influence of selected compounds on cells was tested by performing the cytotoxicity (NR and XTT) assays, proliferation assay, cell adhesion assay, cell migration assay, determination of intracellular ATP level, and apoptosis assay as previously reported.

[3] = test system: SCC-15 human squamous carcinoma cells; test: Cytotoxicity, neutral red uptake (NR) assay; type: cell-based; details: Homo sapiens
Method: as §2, §3, §4

[4] = test system: U-118 MG human glioblastoma cells; test: Cytotoxicity, neutral red uptake (NR) assay; type: cell-based
Method: as §2, §3, §4

C. elegans [5] = details: read-out: LC50 (C. elegans population growth); previously found; cited from earlier work
[6] = compound 100 µM, 20 µM dUMP, 50 µM meTHF, read-out: % Remaining Activity
[7] = 20 µM dUMP, 50 µM meTHF, read-out: IC50 Assessment
[8] = 20 µM dUMP, 50 µM meTHF, read-out: % Remaining Activity
[9] = neutral red assay, BJ, read-out: IC50
[10] = SCC-15, neutral red assay, read-out: IC50
[11] = neutral red assay, U-118 MG, read-out: IC50
[12] = compound 1000 µM, 20 µM dUMP, 50 µM meTHF, read-out: % Remaining Activity
[13] = compound 100 µM, 20 µM dUMP, 250 µM meTHF, read-out: % Remaining Activity
[14] = compound 1000 µM, 20 µM dUMP, 250 µM meTHF, read-out: % Remaining Activity
[15] = 20 µM dUMP, 250 µM meTHF, read-out: IC50 Assessment
[16] = 20 µM dUMP, 250 µM meTHF, read-out: % Remaining Activity
[17] = compound 50 µM, 20 µM dUMP, 250 µM meTHF
[18] = compound 500 µM, 20 µM dUMP, 250 µM meTHF
[19] = compound 667 µM, 20 µM dUMP, 250 µM meTHF
[20] = compound 10 µM, 20 µM dUMP, 50 µM meTHF

T2 sequence (P07607 whole entry): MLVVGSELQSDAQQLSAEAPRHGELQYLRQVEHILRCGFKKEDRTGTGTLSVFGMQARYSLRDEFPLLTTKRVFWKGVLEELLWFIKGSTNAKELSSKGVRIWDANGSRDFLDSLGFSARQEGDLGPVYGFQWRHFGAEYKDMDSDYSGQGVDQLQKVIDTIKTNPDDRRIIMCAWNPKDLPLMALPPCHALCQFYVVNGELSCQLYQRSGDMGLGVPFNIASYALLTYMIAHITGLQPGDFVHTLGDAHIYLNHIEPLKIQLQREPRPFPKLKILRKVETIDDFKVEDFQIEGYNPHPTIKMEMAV
T1 sequence (P04818 whole entry): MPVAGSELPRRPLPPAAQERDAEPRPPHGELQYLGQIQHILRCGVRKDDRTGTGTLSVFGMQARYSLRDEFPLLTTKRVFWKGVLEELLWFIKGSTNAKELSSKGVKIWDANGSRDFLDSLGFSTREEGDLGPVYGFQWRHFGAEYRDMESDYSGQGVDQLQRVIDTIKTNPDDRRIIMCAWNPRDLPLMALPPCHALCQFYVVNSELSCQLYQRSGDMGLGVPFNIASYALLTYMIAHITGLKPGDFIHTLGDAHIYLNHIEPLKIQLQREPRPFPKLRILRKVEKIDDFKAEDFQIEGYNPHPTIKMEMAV
Chain of TsTS (Q9NDD3 entry or part of it): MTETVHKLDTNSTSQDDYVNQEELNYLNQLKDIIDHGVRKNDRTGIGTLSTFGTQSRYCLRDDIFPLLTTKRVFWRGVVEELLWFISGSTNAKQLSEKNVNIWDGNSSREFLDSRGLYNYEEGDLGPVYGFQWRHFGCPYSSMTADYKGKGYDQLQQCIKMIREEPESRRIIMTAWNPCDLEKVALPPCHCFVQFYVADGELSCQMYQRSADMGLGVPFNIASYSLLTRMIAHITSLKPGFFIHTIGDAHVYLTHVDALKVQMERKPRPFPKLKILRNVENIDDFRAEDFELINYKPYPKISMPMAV

## CC1Oc2c(c3c(c4oc5c(O)c(O)ccc5c(=O)c24)C(C)(C)C(C)O3)C1(C)C (centres unmarked) [Rheediaxanthone C (18), Rheediaxanthone C]
hTS; 20 µM dUMP, 50 µM meTHF
  IC50: > 100 µM
hTS; [6]
  remaining activity at 100 µM: 57%
mTS; 20 µM dUMP, 50 µM meTHF
  remaining activity at 10 µM: 77%
mTS; [6]
  remaining activity at 100 µM: 39%
CeTS; [7]
  IC50: > 100 µM
CeTS; [8]
  remaining activity at 100 µM: 71%
TsTS; 50 µM meTHF
  IC50: > 100 µM
  remaining activity at 100 µM: 73%
C. elegans [1]; in vivo
  toxicity for the worm: does not show toxicity for the worm
[2]; [9]
  IC50: 5.95 µM
[3]; [10]
  IC50: 11 µM
[4]; [11]
  IC50: 18.3 µM

## COC(=O)Nc1nc2ccc(C(=O)c3ccccc3)cc2[nH]1 [mebendazole]
C. elegans [5]
  LC50: 4 µM

## COc1ccc2oc3cccc(O)c3c(=O)c2c1 [1-OH-7-OMe-Xanthone (19), 1-OH-7-OMe-Xanthone]
hTS; 20 µM dUMP, 50 µM meTHF
  IC50: > 1000 µM
hTS; [12]
  remaining activity at 1000 µM: 100%
mTS; 20 µM dUMP, 50 µM meTHF
  IC50: > 1000 µM
mTS; [12]
  remaining activity at 1000 µM: 94%
CeTS; [7]
  IC50: > 1000 µM
CeTS; [12]
  remaining activity at 1000 µM: 81%
TsTS; 50 µM meTHF
  IC50: > 1000 µM
  remaining activity at 1000 µM: 89%
[2]; [9]
  IC50: > 40 µM
[3]; [10]
  IC50: > 40 µM
[4]; [11]
  IC50: 40 µM

## CC(C)=CCc1c(O)ccc2c1OC(c1ccccc1)CC2=O (racemic) [(±)-7-Hydro-xy-8-C-prenyl flavanone]
hTS; [13]
  remaining activity at 100 µM: 74%
hTS; [14]
  remaining activity at 1000 µM: 7%
mTS; [13]
  remaining activity at 100 µM: 71%
mTS; [14]
  remaining activity at 1000 µM: 2%
CeTS; [15]
  IC50: > 100 µM
CeTS; [16]
  remaining activity at 100 µM: 65%
CeTS; [14]
  remaining activity at 1000 µM: 3%
TsTS; 250 µM meTHF
  IC50: > 100 µM
  remaining activity at 100 µM: 90%
  remaining activity at 1000 µM: 25%

## COc1cc(/C=C/C(=O)CC(=O)/C=C/c2ccc(O)c(OC)c2)ccc1O [Curcumin (1), Curcumin]
hTS; [17]
  remaining activity at 50 µM: 86%
hTS; [18]
  remaining activity at 500 µM: 20%
mTS; [17]
  remaining activity at 50 µM: 83%
mTS; [18]
  remaining activity at 500 µM: 37%
CeTS; [17]
  remaining activity at 50 µM: 84%
CeTS; [18]
  remaining activity at 500 µM: 30%
TsTS; 250 µM meTHF
  IC50: > 500 µM
TsTS; compound 500 µM, 250 µM meTHF
  remaining activity at 500 µM: 73%

## COc1c(C2(O)COc3cc(O)cc(O)c3C2=O)ccc2c1C=CC(C)(C)O2 (centres unmarked) [Sophoronol (5), Sophoronol]
hTS; [13]
  remaining activity at 100 µM: 75%
hTS; [14]
  remaining activity at 1000 µM: 8%
mTS; [13]
  remaining activity at 100 µM: 75%
mTS; [14]
  remaining activity at 1000 µM: 10%
CeTS; [15]
  IC50: > 100 µM
CeTS; [16]
  remaining activity at 100 µM: 77%
CeTS; [14]
  remaining activity at 1000 µM: 8%
TsTS; 250 µM meTHF
  IC50: > 100 µM
  remaining activity at 100 µM: 74%
  remaining activity at 1000 µM: 35%

## COc1ccc2oc3ccccc3c(=O)c2c1 [2-OMe-Xanthone (20), 2-OMe-Xanthone]
hTS
  remaining activity at 1000 µM: 88%
hTS; 20 µM dUMP, 50 µM meTHF
  IC50: > 1000 µM
mTS
  remaining activity at 1000 µM: 84%
mTS; 20 µM dUMP, 50 µM meTHF
  IC50: > 1000 µM
CeTS
  remaining activity at 1000 µM: 95%
CeTS; IC50 Assessment, 20 µM dUMP, 50 µM meTHF
  IC50: > 1000 µM
TsTS; 50 µM meTHF
  IC50: > 1000 µM
  remaining activity at 1000 µM: 92%
C. elegans [1]; Caenorhabditis elegans, read-out: LC50 (reduction of growth of the nematode population)
  LC50: 33.8 ± 2.1 µM
[2]
  IC50: > 40 µM
[3]
  IC50: > 40 µM
[4]; U-118-MG
  IC50: > 40 µM

## COC(=O)/C=C/C(C)=C\C=C\C(C)=C\C=C\C=C(C)\C=C\C=C(C)\C=C\C(=O)O [Bixin (6), Bixin]
hTS; compound 667 µM (highest obtained concentration), 20 µM dUMP, 250 µM meTHF
  remaining activity at 667 µM: > 100%
mTS; 20 µM dUMP, 250 µM meTHF
  IC50: > 667 µM
mTS; [19]
  remaining activity at 667 µM: 73%
CeTS; compound 67 µM, 20 µM dUMP, 250 µM meTHF
  remaining activity at 67 µM: 93%
CeTS; [19]
  remaining activity at 667 µM: 46%
TsTS; compound 67 µM, 250 µM meTHF
  remaining activity at 67 µM: 76%
TsTS; compound 667 µM, 250 µM meTHF
  remaining activity at 667 µM: 47%

## O=C(OCC1=C[C@@H](O)[C@@H]2C=CO[C@@H](O[C@@H]3O[C@H](CO)[C@@H](O)[C@H](O)[C@H]3O)[C@H]12)c1ccc(O)cc1 [Agnuside (8), Agnuside]
hTS; [13]
  remaining activity at 100 µM: 90%
hTS; [14]
  remaining activity at 1000 µM: 47%
mTS; 20 µM dUMP, 250 µM meTHF
  IC50: > 1000 µM
mTS; [14]
  remaining activity at 1000 µM: 72%
CeTS; [15]
  IC50: > 100 µM
CeTS; [16]
  remaining activity at 100 µM: 100%
CeTS; [14]
  remaining activity at 1000 µM: 36%
TsTS; 250 µM meTHF
  IC50: > 1000 µM
  remaining activity at 1000 µM: 63%

## COc1c(O)cc2oc3ccccc3c(=O)c2c1O [1,3-OH-2-OMe-Xanthone (16), 1,3-OH-2-OMe-Xanthone]
hTS
  remaining activity at 100 µM: 54%
  remaining activity at 1000 µM: 27%
mTS
  remaining activity at 100 µM: 67%
  remaining activity at 1000 µM: 32%
CeTS
  remaining activity at 1000 µM: 65%
CeTS; IC50 Assessment, 20 µM dUMP, 250 µM meTHF
  IC50: > 1000 µM
TsTS; 50 µM meTHF
  IC50: > 100 µM
  remaining activity at 100 µM: 82%
  remaining activity at 1000 µM: 32%
TsTS; 250 µM meTHF
  IC50: > 100 µM
  remaining activity at 100 µM: 92%
  remaining activity at 1000 µM: 23%
[2]
  IC50: > 40 µM
[3]
  IC50: > 40 µM
[4]; U-118-MG
  IC50: > 40 µM

## COc1c(O)cc2oc3cc(O)c(CC=C(C)C)c(O)c3c(=O)c2c1CC=C(C)C [α-Mangostin (21), α-Mangostin, reference compound]
hTS; [20]
  remaining activity at 10 µM: 89%
hTS; [6]
  remaining activity at 100 µM: 19%
mTS; 20 µM dUMP, 50 µM meTHF
  remaining activity at 10 µM: 75%
mTS; [6]
  remaining activity at 100 µM: 5%
CeTS; [20]
  remaining activity at 10 µM: 79%
CeTS; [8]
  remaining activity at 100 µM: 27%
TsTS; 50 µM meTHF
  IC50: > 100 µM
  remaining activity at 100 µM: 85%
C. elegans [5]
  LC50: 3.8 µM

Reference: PMC7356228, “Alvaxanthone, a Thymidylate Synthase Inhibitor with Nematocidal and Tumoricidal Activities” (Molecules, 2020)
